Experimental data taken from US6444872B1, “Large animal model of invasive pulmonary aspergillosis in an immunocompromised host” (priority 1999, dated 2002).

What was measured:
[1] = human, in vivo; cited from earlier work
Aspergillus fumigatus = assay: Beagle model of invasive pulmonary aspergillosis in an immunocompromised host (TBI + steroids, bronchoscopic spore inoculation); format: in vivo
From the text: 1. The “Right” Animal: While choosing an animal the inventors had to consider that a human/clinical mold infection, such as an Aspergillus infection, usually begins as a localized infection and not as a widespread and diffuse pulmonary infection. To be able to reproducibly inoculate a specified dose of an infectious agent in a limited, defined part of the airways the inventors must have easy access to a particular part of the pulmonary tree. This meant that a large animal, such as dog, pig, sheep or monkey, rather than a rodent or lagomorph should be considered. The beagle, which is accepted by both the NCI and the FDA for safety studies of pharmaceutically active agents prior to entering clinical trials, was favored. This dog is easily accessible from several commercial breeders, and in addition to the selected experimental dogs one could conveniently house extra animal's for donation of both platelets and red cells to be transfused as needed during the supportive care phase of the experiments, i.e. after the mold administration.
2. Immunosuppression: For immunosuppression the inventors chose total body irradiation (TBI) with an X-ray (Cobalt) (XRT) source, administered with the animal under general anesthesia in a specially constructed box to obtain uniform radiation exposure. […] Further, the XRT dose can be calculated such that it gives a window of fairly deep immunosuppression sustained for 3-5 weeks, which should be sufficient for the intended purpose. The XRT was followed with daily oral prednisolone administration to further suppress T-lymphocyte and macrophage function and enhance spreading the infection.
3. Mold Species: More than 90% of human clinical Aspergillus infections are a result of Aspergillus fumigatus infection.
4. Mold Dose: To standardize the mold dosage, the inventors prepared batches of Aspergillus spores that were mixed in agarose and stirred down vigorously in mineral oil to obtain a suspension of spores encapsulated in small agarose beads (the approximate average bead diameter was 20 μm). After washing the beads in 0.5% deoxycholate, they were mixed with glycerol prior to cryopreservation and storage at −70° C. The use of agar beads and other encapsulation methods are also contemplated.
5. Mold Administration: The human clinical infection usually starts as a localized airway infection either in the sinuses or in a part of one lung, and not as a generalized pulmonary infection. The inventors decided to utilize a pediatric bronchoscope to safely and reproducibly introduce the Aspergillus spores in the intermediary (lower) right lung lobe. After standardization of the dose, 1×10^6 spores encapsulated in agarose beads and resuspended in NS were infused at each occasion.
6. Time of Mold Administration: In most human patients, Aspergillus infections occur at a time of leukopenia and profound immunosuppression. The time to develop leukopenia after TBI was very reproducible in the beagles. At day 10-14 days after XRT, when the animal's absolute white blood cell count falls below about 500 per μL (neutrophil count <400 per μL), the mold spore administration was performed. The WBC remain at about <500 per μL till day 25-30 after TBI, at which time the count recovered fairly rapidly in animal's that had not been inoculated with Aspergillus spores, or in beagles who had been inoculated with a dose that was too low to yield progressive infection.
7. Supportive Care: The first few animal's died from a superimposed secondary bacterial infection rather than from the mold infection itself In addition, there were bleeding complications when the dogs' platelet count fell below 10,000 per μL. The inventors therefore decided to utilize prophylactic oral (broad-spectrum) antibiotics and “prophylactic” platelet transfusions. […]

[2] = in vivo; cited from earlier work
[3] = the two dogs that rejected the infection

C[C@@H]1[C@H](O)[C@@H](C)/C=C/C=C/C=C/C=C/C=C/C=C/C=C/[C@H](O[C@@H]2O[C@H](C)[C@@H](O)[C@H](N)[C@@H]2O)C[C@@H]2O[C@](O)(C[C@@H](O)C[C@@H](O)[C@H](O)CC[C@@H](O)C[C@@H](O)CC(=O)O[C@H]1C)C[C@H](O)[C@H]2C(=O)O [AMB, Amphotericin B]
cases with nephrotoxicity [1]: > 75%

C[C@@H]1C/C=C/C=C/C=C/C=C/[C@H](O[C@@H]2O[C@H](C)[C@@H](O)[C@H](N)[C@@H]2O)C[C@@H]2O[C@](O)(C[C@@H](O)C[C@H]3O[C@@H]3/C=C/C(=O)O1)C[C@H](O)[C@H]2C(=O)O [Natamycin]
outcome of infection (Aspergillus fumigatus; after a 16-day cycle of daily Natamycin treatments): two animal's rejected the infection
life span after fungal inoculation (Aspergillus fumigatus; one animal, expected life span nine days, daily intravenous Natamycin): 17 days
Pneumonia (Aspergillus fumigatus; single dog, 1 x 10^6 spores, TBI 3.0 Gy, steroid 30/10 mg, platelet/antibiotic support): Yes
Complications (outcome) (Aspergillus fumigatus; single dog, survived pneumonia 4 weeks post therapy): Dog survived
necropsy finding (Aspergillus fumigatus; [3]): only signs of healing
time free from resurgence of the mold infection post completion of drug treatment (Aspergillus fumigatus; [3]): one
extended life as compared to untreated animals (Aspergillus fumigatus; therapy instituted a day after Aspergillus inoculum, last 3 beagles, 3.0 Gy TBI): Natamycin extended life by 80% as compared to untreated animals

CC[C@]1(O)C[C@@H]2CN(CCc3c([nH]c4ccccc34)[C@@](C(=O)OC)(c3cc4c(cc3OC)N(C)[C@H]3[C@@](O)(C(=O)OC)[C@H](OC(C)=O)[C@]5(CC)C=CCN6CC[C@]43[C@@H]65)C2)C1 [Vinblastine]
administered dose recovered in the feces after biliary excretion [2]: about 10%
dose excreted intact into the urine [2]: Approximately 15%
